Among the data in ChEMBL document CHEMBL1149403, “Design, synthesis, and anti-Helicobacter pylori activity of erythromycin A (E)-9-oxime ether derivatives” (2006) are MIC values, retold here.

Broadly, the MIC is the lowest concentration found to suppress growth. High values mean weaker potency, low ones greater potency.

In this assay the test system is Helicobacter pylori. The assay can be described thus: Inhibitory activity against Helicobacter pylori NCTC-10638. In kind it is functional.

≈ marks a conversion by molar mass, not a printed value.

`CC[C@H]1OC(=O)[C@H](C)C(O[C@H]2C[C@](C)(OC)[C@@H](O)[C@@H](C)O2)[C@H](C)C(O[C@@H]2O[C@H](C)C[C@H](N(C)C)[C@@H]2O)[C@](C)(O)C[C@@H](C)/C(=N\OCOc2ccc(OC)cc2)[C@H](C)[C@@H](O)[C@]1(C)O` (some centres not stated) registered a minimal inhibitory concentration (MIC) of 0.02 µg/mL (≈ 0.0226 µM).
On to `CC[C@H]1OC(=O)[C@H](C)C(O[C@H]2C[C@](C)(OC)[C@@H](O)[C@@H](C)O2)[C@H](C)C(O[C@@H]2O[C@H](C)C[C@H](N(C)C)[C@@H]2O)[C@](C)(OC)C[C@@H](C)/C(=N\OCOc2ccccc2OC)[C@H](C)[C@@H](O)[C@]1(C)O` (some centres not stated), for which the minimum inhibitory concentration (MIC) stood at 0.02 µg/mL (≈ 0.0222 µM).
`CC[C@H]1OC(=O)[C@H](C)C(=O)[C@H](C)C(O[C@@H]2O[C@H](C)C[C@H](N(C)C)[C@@H]2O)[C@](C)(OC)C[C@@H](C)/C(=N\OCOc2ccc(OC)cc2)[C@H](C)[C@@H](O)[C@]1(C)O` (some centres not stated) had an MIC of 0.02 µg/mL (≈ 0.0271 µM).
Turning to `CC[C@H]1OC(=O)[C@H](C)C(O[C@H]2C[C@](C)(OC)[C@@H](O)[C@@H](C)O2)[C@H](C)C(O[C@@H]2O[C@H](C)C[C@H](N(C)C)[C@@H]2O)[C@](C)(OC)C[C@@H](C)/C(=N\OCOc2ccc(OC)cc2)[C@H](C)[C@@H](O)[C@]1(C)O` (some centres not stated), the minimal inhibitory concentration (MIC) came to 0.03 µg/mL (≈ 0.0334 µM).
The compound `CC[C@H]1OC(=O)[C@H](C)[C@@H](O[C@H]2C[C@@](C)(OC)[C@@H](O)[C@H](C)O2)[C@H](C)[C@@H](O[C@@H]2O[C@H](C)C[C@H](N(C)C)[C@H]2O)[C@](C)(OC)C[C@@H](C)C(=O)[C@H](C)[C@@H](O)[C@]1(C)O` [CLARITHROMYCIN] showed a minimal inhibitory concentration (MIC) of 0.02 µg/mL (≈ 0.0267 µM).
For the compound `CC[C@H]1OC(=O)[C@H](C)C(=O)[C@H](C)C(O[C@@H]2O[C@H](C)C[C@H](N(C)C)[C@@H]2O)[C@](C)(OC)C[C@@H](C)/C(=N\OCOc2ccccc2OC)[C@H](C)[C@@H](O)[C@]1(C)O` (some centres not stated), the lowest concentration to inhibit growth (MIC) was 0.04 µg/mL (≈ 0.0541 µM).
The compound `CC[C@H]1OC(=O)[C@H](C)C(O[C@H]2C[C@](C)(OC)[C@@H](O)[C@@H](C)O2)[C@H](C)C(O[C@@H]2O[C@H](C)C[C@H](N(C)C)[C@@H]2O)[C@](C)(O)C[C@@H](C)/C(=N\OCOc2ccccc2OC)[C@H](C)[C@@H](O)[C@]1(C)O` (some centres not stated) came in with an MIC of 0.03 µg/mL (≈ 0.0339 µM). The MIC values of the last two compounds are within 1.5-fold of each other.
